Test results reported in ChEMBL document CHEMBL3785063 (Eur J Clin Pharmacol, 1981).

Assays:
[1] = Drug concentration in arrhythmia patient (7 patients) serum at 400 mg, iv after 4 days 400 mg, po dose administered followed continuous oral therapy with 200 mg, tid measured after 48 hrs by HPLC analysis; details: human
[2] = Drug excretion in arrhythmia patient (7 patients) assessed as unchanged compound level in urine at 400 mg, iv after 4 days 400 mg, po dose administered followed continuous oral therapy with 200 mg, tid measured 2 hrs after iv drug challenge by HPLC analysis; details: human
[3] = Drug concentration in arrhythmia patient (7 patients) serum at 400 mg, iv after 4 days 400 mg, po dose administered followed continuous oral therapy with 200 mg, tid measured after 24 hrs by HPLC analysis; details: human
[4] = Tmax in arrhythmia patient (7 patients) at 400 mg, iv after 4 days 400 mg, po dose administered followed continuous oral therapy with 200 mg, tid by HPLC analysis; details: human, in vivo
[5] = Drug uptake in arrhythmia patient (7 patients) serum at 400 mg, iv after 4 days 400 mg, po dose administered followed continuous oral therapy with 200 mg, tid measured 2 hrs after iv drug challenge by HPLC analysis; details: human
[6] = Drug concentration in arrhythmia patient (7 patients) serum at 400 mg, iv after 4 days 400 mg, po dose administered followed continuous oral therapy with 200 mg, tid measured after 1 month by HPLC analysis; details: human
[7] = Drug concentration in arrhythmia patient (7 patients) serum at 400 mg, iv after 4 days 400 mg, po dose administered followed continuous oral therapy with 200 mg, tid measured after 1 week by HPLC analysis; details: human

In the case of `CCCCc1oc2ccccc2c1C(=O)c1cc(I)c(OCCN(CC)CC)c(I)c1` [AMIODARONE], the concentration at 48 h [1] is reported as 760 ng/mL, the concentration at 2 h [2] is reported as 100 ng/mL and the concentration at 24 h [3] is reported as 610 ng/mL. For the same compound, the Tmax at 96 h [4] was 7.3 h, the concentration at 2 h [5] was 2000 ng/mL and the concentration at 96 h [6] was 1560 ng/mL. For the same compound, the concentration at 1 week [7] was 1180 ng/mL.
